Experimental data taken from US20070231273A1, “Method for Decreasing Blood Glucose Levels” (priority 2006, published 2007).

Legend:
[1] = test system: sulfonylurea (SUR) receptors of KATP channels; conditions: rat cerebral cortex, hippocampus, and striatum; cited from earlier work
β-cell KATP channels [2] = target: T1, β-cell KATP channels (Rattus norvegicus, UniProt P70673+Q09429); assay: Cell-attached single channel recording of KATP channels; format: cell-based; parameters: the effects of iptakalim on KATP channels expressed in rat pancreatic β-cells were examined; endogenous in cells; host or cells: primary pancreatic β-cells from male adult Wistar rats
T1 sequence (P70673 whole entry): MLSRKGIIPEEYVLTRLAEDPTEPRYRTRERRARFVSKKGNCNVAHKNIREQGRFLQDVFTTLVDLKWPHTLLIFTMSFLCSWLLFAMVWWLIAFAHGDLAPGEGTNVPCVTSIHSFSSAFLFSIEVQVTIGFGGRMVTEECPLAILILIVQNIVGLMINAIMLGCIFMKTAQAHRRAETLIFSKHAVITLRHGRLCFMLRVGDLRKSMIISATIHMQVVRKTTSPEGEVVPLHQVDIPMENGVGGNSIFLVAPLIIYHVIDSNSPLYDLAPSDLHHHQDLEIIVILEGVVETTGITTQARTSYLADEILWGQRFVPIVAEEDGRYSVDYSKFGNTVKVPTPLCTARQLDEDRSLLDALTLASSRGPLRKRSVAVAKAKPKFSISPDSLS
T1 sequence (Q09429 whole entry): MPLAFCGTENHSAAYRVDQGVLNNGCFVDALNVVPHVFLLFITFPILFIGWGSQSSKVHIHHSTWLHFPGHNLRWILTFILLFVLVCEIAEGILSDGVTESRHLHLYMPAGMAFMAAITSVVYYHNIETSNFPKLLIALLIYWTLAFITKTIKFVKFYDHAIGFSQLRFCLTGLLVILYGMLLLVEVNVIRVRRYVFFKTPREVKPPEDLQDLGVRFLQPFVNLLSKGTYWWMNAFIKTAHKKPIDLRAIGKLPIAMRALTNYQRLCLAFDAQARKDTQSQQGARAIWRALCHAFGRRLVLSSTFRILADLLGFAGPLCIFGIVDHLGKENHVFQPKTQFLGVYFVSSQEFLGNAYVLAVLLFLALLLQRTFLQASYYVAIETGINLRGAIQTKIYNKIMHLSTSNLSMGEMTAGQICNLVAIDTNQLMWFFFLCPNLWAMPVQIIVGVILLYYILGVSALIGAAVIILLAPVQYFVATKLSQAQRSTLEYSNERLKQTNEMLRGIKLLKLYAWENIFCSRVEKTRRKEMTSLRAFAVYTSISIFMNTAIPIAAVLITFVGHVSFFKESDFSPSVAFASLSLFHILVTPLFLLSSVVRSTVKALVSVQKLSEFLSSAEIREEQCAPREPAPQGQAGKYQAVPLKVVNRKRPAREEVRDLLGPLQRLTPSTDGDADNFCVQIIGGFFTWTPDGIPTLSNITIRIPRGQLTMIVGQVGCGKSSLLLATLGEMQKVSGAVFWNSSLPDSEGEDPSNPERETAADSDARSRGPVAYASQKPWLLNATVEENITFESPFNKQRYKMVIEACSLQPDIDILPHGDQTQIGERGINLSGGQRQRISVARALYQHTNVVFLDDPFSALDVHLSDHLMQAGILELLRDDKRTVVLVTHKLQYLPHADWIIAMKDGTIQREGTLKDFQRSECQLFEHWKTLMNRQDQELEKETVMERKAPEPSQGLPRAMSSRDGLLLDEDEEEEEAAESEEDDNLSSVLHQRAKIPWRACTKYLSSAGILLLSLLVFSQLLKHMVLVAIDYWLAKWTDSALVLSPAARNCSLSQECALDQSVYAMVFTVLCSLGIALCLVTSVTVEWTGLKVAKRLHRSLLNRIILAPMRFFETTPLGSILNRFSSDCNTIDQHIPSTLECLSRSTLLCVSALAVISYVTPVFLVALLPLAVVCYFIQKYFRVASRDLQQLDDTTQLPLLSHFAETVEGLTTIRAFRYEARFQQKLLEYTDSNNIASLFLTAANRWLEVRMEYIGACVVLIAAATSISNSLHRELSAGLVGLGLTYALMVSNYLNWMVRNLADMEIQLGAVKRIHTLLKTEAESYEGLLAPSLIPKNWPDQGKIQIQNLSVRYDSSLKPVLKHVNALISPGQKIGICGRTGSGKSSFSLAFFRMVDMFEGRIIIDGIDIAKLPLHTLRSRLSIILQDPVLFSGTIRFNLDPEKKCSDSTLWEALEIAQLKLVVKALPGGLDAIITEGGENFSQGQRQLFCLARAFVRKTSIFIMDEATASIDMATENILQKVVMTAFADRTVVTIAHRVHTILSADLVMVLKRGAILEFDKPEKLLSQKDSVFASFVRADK
Experimental: (§1) Pancreatic β-cell isolation. Isolation of rat islets was performed as previously described. In short, male adult rats (Wistar) were anesthetized with diethyl ether, and 10 ml of Hank's buffered saline (HBSS) containing collagenase (200 U/ml, Wako Chem., Japan) was injected into the common bile duct. The pancreas, swollen with digestion solution, was quickly excised and incubated in a plastic culture bottle for 20 min at 37° C. The suspension obtained by shaking the bottle was filtered through 0.5 mm metal mesh and washed with HBSS, which included 2% bovine serum albumin (BSA). […] After washing with HBSS, which contained 2% BSA, islets were cultured for 24 h with 5% CO2 in the tissue culture medium. Separation of islets was carried out using dispase (1000 U/ml, Godo Shusei, Japan) as previously described. Separated cells were again cultured for 1-4 days. […] Patch-clamp recordings. Cultured β-cells were kept in a 35-mm Petri dish, and the dish was placed on the stage of an inverted microscope (IMT-2, Olympus, Tokyo, Japan). Membrane potentials and membrane currents were measured using a patch-clamp amplifier (EPC-7, List Electronic, Darmstadt, Germany). The nystatin-perforation method was used to measure the membrane potential and the standard method was used to measure whole-cell currents. […] In order to measure whole-cell membrane current, voltage ramp pulses from −90 to −50 mV were repeatedly applied using a ramp pulse generator (SET-2100, Nihon Kohden, Tokyo, Japan). […] Series resistance below 12 MΩ was accepted. Single channel current recordings were carried out by the cell-attached and inside-out configurations. All electrophysiological experiments were carried out at room temperature (22±1° C.). Data of single channel currents were low-pass filtered at 1 KHz, digitized at 10 KHz and analyzed using a single channel current analysis program (Clampfit 9.2, Axon Instruments, Foster City, Calif.). The concentration-inhibition curve created by iptakalim was fitted using Origin 5.0 (Microcal, North Hampton, Mass.).
(§2) Solutions and Drugs. The standard external solution contained (in mM): 135 NaCl, 5.6 KCl, 1.2 MgCl2, 1 CaCl2, 5 glucose, 10 HEPES and pH 7.3 adjusted with KOH. For perforated patch membrane potential recording, the pipette solution contained (in mM): 100 K-gluconate, 35 KCl, 5 glucose, 0.5 EGTA, 10 HEPES, 200 μg/ml nystatin (Sigma, St. Louis, Mo., USA) and pH 7.2. For conventional whole-cell current recording, the pipette solution contained (in mM): 100 K-gluconate, 35 KCl, 1.2 MgCl2, 5 glucose, 0.5 EGTA, 10 HEPES and pH 7.2. For cell-attached and inside-out single channel recordings, the pipette solution contained (in mM): 135 KCl, 1.2 MgCl2, 5 glucose, 0.5 EGTA, 10 HEPES and pH 7.3. The ionic composition of the solution inside the membrane (bath solution) in inside-out recordings was the same as the pipette solution, but the pH of this solution was 7.2. When performing inside-out recordings, ATP was added to the bath solution at various concentrations.

rat pancreatic β-cells = assay: Nystatin-perforation whole-cell recording in current-clamp mode (membrane potential); format: cell-based; conditions: 100 μM; for effect on membrane potential: in the presence of 10 μM nifedipine
Experimental: as §1
Solutions and Drugs. […]

[3] = test system: smooth muscle cells isolated from pulmonary artery; conditions: patch-clamp whole-cell; also isolated rat aorta denuded vascular endothelium; cited from earlier work
β-cell KATP channels [4] = target: T1, β-cell KATP channels; assay: Inside-out patch single channel recording of KATP channels; format: biochemical; parameters: the effects of iptakalim on KATP channels expressed in rat pancreatic β-cells were examined; endogenous in cells; host or cells: primary pancreatic β-cells from male adult Wistar rats; conditions: 100 μM
Experimental: Pancreatic β-cell isolation. Isolation of rat islets was performed as previously described. In short, male adult rats (Wistar) were anesthetized with diethyl ether, and 10 ml of Hank's buffered saline (HBSS) containing collagenase (200 U/ml, Wako Chem., Japan) was injected into the common bile duct. The pancreas, swollen with digestion solution, was quickly excised and incubated in a plastic culture bottle for 20 min at 37° C. The suspension obtained by shaking the bottle was filtered through 0.5 mm metal mesh and washed with HBSS, which included 2% bovine serum albumin (BSA). […] After washing with HBSS, which contained 2% BSA, islets were cultured for 24 h with 5% CO2 in the tissue culture medium. Separation of islets was carried out using dispase (1000 U/ml, Godo Shusei, Japan) as previously described. Separated cells were again cultured for 1-4 days. […] Patch-clamp recordings. Cultured β-cells were kept in a 35-mm Petri dish, and the dish was placed on the stage of an inverted microscope (IMT-2, Olympus, Tokyo, Japan). Membrane potentials and membrane currents were measured using a patch-clamp amplifier (EPC-7, List Electronic, Darmstadt, Germany). […] Data of single channel currents were low-pass filtered at 1 KHz, digitized at 10 KHz and analyzed using a single channel current analysis program (Clampfit 9.2, Axon Instruments, Foster City, Calif.). […]

rat pancreatic islets = assay: Measurement of insulin release from isolated islets (RIA); format: cell-based; conditions: versus basal at 5.5 mM glucose
Experimental: Measurement of insulin release. Isolated islets were hand-picked under microscopy, and ten islets were distributed to each 35-mm Petri dish with 3 ml of HBSS containing 5.5 mM glucose, 20 mM HEPES, and 2% BSA. After pre-incubation for 60 min, islets were exposed to 100 nM BIM for 60 min, and then stimulated by high glucose (22.5 mM), tolbutamide (0.5 mM) or iptakalim (0.1 mM) for 30 min. Before and after glucose stimulation, some samples were collected for measurement of immuno-reactive insulin (IRI), and stored at −20° C. until the assay. IRI was measured by RIA using anti-human insulin antibody with rat insulin standard (Radio-immunoassay Kit, Insulin “Eiken”, Tokyo Japan).
Iptakalim increased insulin release from rat pancreatic islets. Turning finally to FIG. 19, the effects of iptakalim were examined on insulin release. […] With glucose at 5.5 mM in the external solution, basal insulin secretion was observed. Application of 22.5 mM glucose increased insulin secretion about 3-fold (p<0.01, n=6), 500 μM tolbutamide increased insulin secretion about 2.5-fold (p<0.01, n=6), and 100 μM iptakalim increased insulin secretion about 1.5-fold (p<0.05, n=8). Each group was averaged from 5-7 cells tested. Vertical bars indicate SE.

Kir6.2/SUR1 = target: T2, Kir6.2/SUR1 (Homo sapiens, UniProt Q09428+Q14654); assay: Transfected Kir6.2/SUR1 cell line (HEK 293), data not shown; format: cell-based
T2 construct: expressed in transfected cells; host or cells: HEK 293
T2 sequence (Q14654 whole entry): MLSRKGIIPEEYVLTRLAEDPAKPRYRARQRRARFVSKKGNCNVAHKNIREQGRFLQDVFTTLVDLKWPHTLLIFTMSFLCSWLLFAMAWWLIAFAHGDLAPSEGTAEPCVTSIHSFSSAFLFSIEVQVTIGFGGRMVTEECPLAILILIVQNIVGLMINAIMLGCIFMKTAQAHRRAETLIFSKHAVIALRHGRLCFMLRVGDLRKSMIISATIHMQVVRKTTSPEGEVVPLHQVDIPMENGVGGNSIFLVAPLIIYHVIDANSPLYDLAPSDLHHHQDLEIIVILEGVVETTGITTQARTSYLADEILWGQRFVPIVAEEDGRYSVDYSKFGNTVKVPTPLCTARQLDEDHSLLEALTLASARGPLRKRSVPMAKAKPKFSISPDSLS
T2 sequence (Q09428 whole entry): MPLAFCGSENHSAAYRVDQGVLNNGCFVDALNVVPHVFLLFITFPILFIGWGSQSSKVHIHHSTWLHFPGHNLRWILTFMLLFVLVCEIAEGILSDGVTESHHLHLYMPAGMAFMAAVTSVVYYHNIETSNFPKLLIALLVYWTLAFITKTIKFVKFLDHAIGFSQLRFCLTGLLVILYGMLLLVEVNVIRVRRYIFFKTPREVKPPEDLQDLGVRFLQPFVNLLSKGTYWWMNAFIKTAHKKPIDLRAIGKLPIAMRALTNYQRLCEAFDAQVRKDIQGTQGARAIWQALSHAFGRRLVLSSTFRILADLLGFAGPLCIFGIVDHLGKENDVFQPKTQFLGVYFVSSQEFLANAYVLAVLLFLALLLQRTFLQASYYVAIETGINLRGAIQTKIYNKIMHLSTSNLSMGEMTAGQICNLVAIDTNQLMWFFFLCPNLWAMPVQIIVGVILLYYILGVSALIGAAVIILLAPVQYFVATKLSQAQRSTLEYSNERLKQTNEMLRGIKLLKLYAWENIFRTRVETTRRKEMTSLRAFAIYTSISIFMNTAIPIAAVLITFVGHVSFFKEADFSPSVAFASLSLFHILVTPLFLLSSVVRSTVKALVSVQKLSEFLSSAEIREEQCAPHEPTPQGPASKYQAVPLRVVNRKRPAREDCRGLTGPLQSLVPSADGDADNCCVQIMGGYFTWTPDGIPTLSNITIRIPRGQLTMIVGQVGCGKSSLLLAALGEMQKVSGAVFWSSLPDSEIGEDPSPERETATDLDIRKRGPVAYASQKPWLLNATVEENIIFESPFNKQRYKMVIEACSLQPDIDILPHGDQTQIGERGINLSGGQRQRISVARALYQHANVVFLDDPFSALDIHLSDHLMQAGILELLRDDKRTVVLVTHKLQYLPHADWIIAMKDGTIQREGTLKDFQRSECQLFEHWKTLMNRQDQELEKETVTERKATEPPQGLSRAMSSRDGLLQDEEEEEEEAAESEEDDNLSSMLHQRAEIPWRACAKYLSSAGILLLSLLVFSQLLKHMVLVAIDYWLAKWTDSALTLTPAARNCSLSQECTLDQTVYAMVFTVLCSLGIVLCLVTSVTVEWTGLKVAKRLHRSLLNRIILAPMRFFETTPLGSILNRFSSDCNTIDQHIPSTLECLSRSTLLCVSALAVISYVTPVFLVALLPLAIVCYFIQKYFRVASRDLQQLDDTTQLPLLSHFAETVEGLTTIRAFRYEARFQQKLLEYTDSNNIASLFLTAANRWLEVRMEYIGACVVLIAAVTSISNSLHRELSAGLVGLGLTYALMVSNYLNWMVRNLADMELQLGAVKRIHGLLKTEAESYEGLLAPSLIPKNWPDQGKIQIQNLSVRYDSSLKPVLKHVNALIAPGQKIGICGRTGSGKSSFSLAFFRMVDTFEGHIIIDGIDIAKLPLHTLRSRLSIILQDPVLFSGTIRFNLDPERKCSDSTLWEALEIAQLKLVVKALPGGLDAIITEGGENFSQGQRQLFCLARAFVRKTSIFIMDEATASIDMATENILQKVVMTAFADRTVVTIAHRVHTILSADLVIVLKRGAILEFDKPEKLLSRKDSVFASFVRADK
Text: It is well known that KATP channels are expressed in a variety of tissues with different SUR subunits. For instance, cardiovascular KATP channels are formed by Kir6.2-SUR2A, pancreatic β-cell KATP channels are formed by Kir6.2-SUR1, while midbrain dopamine neurons are formed by Kir6.2-SUR1 (15,25-27) or Kir6.2-SUR2B. This diversity in SUR subunit expression results in different sensibilities to metabolic stress agents and KATP channel openers.

β-cell KATP channels [5] = target: T1, β-cell KATP channels; assay: Conventional whole-cell voltage-clamp, ramp pulse-induced KATP channel currents; format: cell-based; parameters: the effects of iptakalim on KATP channels expressed in rat pancreatic β-cells were examined; endogenous in cells; host or cells: primary pancreatic β-cells from male adult Wistar rats; conditions: for effect on ramp pulse-induced KATP channel whole-cell current: ramp −90 to −50 mV, glucose 5.5 mM
Experimental: as §1
as §2, with “The ionic composition of the solution inside the membrane (bath solution) in inside-out recordings was the same as the pipette solution, but the pH of this solution was 7.2. When performing inside-out recordings, ATP was added to the bath solution at various concentrations.” left out

KATP channel = conditions: cited from earlier work
[6] = cited from earlier work
[7] = test system: primary cultured hippocampal neurons; conditions: K+, but not Na+ and Ca2+; cited from earlier work
rat β-cells = assay: Fura-2 Ca2+ imaging of intracellular Ca2+ concentrations; format: cell-based; conditions: 100 μM bath-applied; sensitive to nifedipine
Experimental: Fura-2 Ca^2+ imaging. Isolated islets were placed in a glass-bottom culture dish and then loaded with a HEPES buffer solution (in mM: NaCl 140, KCl 4.7, MgCl2 1.2, CaCl2 1.0, glucose 10 and HEPES 10) containing 1 μM fura-2/AM (Dojin, Kumamoto, Japan) for 20 min at room temperature. Ca^+ images were captured using an inverted microscope with 40× Plan-Neofluar objectives (Axiovert 135, Zeiss, Oberkochen, Germany), a silicon intensifier target camera and recorded on a fluorescence-imaging system (Argus 50/CA, Hamamatsu Photonics, Hamamatsu, Japan). Excitation wavelengths were 340 nm and 380 nm, selected from a Xenon light source, and emission wavelength was 510 nm. A change in free intracellular Ca^2+ concentration ([Ca^2+]i) was calculated based on the change in ratio of two fluorescence intensities, F340/F380 (24). All microfluorimetric experiments were carried out at room temperature (22±1° C.).
Iptakalim elevated intracellular Ca^2+ concentrations. Referring to FIGS. 15-18, in order to test whether iptakalim-induced membrane depolarization triggers Ca^2+ influx through voltage-sensitive Ca^2+ channels, intracellular Ca^2+ concentrations were measured using fura-2 florescence imaging.

β-cell KATP channels [8] = target: T1, β-cell KATP channels; assay: Preliminary experiments on β-cell KATP channels (data not shown); format: cell-based; parameters: endogenous in cells; host or cells: β-cells (preparation not described for these experiments)
[9] = 100 μM bath-application, Vp 0 mV

Compound: CCC(C)(C)N=C(NC#N)Nc1cccnc1 [P1075]
- displacement of [3H]iptakalim binding [1]: displaced

Compound: CC1=NS(=O)(=O)c2cc(Cl)ccc2N1 [diazoxide, reference compound]
- effect on KATP channel activity (β-cell KATP channels [2]; [9]): dramatically enhanced KATP channel activity
- effect on membrane potential (rat pancreatic β-cells): remarkably hyperpolarized the membrane

Compound: CC(C)NC(C)(C)C(C)C.Cl [iptakalim, N-(1-methylethyl)-1,1,2-trimethyl-propylamine hydrochloride]
- effect on K+ currents [3]: significantly enhanced K^+ currents
- effect on KATP channel activity (β-cell KATP channels [2]; [9]): reduced channel activities
- effect on KATP channel activity (β-cell KATP channels [2]; 100 μM, Vp −60 mV): reduced KATP channel activity
- open-time probability of KATP channels (β-cell KATP channels [2]; during application of 100 μM, before application 0.43±0.0438, Vp 0 mV): 0.121±0.026
- current amplitude of KATP channels (β-cell KATP channels [2]; during application of 100 μM, before application 3.51±0.17 pA, Vp 0 mV): 3.16±0.14 pA
- mean open time of KATP channels (β-cell KATP channels [2]; during application of 100 μM, before application 5.95±0.62 ms, Vp 0 mV): 8.78 ± 0.81 ms
- mean open-time probability (β-cell KATP channels [4]; absence of ATP, reduced from 0.359±0.065): 0.145±0.041
- mean open-time probability (β-cell KATP channels [4]; presence of 10 μM ATP, reduced from 0.222±0.042): 0.103±0.029
- increase of insulin secretion (rat pancreatic islets; 100 μM): about 1.5 fold
- sensitivity of Kir6.2/SUR1 channels (opening) (Kir6.2/SUR1): insensitivity
- effect on ramp pulse-induced KATP channel whole-cell current (β-cell KATP channels [5]; 100 μM bath-application): reduced the magnitude of the KATP channel current
- Hill coefficient of block of KATP channel current (β-cell KATP channels [5]; whole-cell, concentration-inhibition curve): 0.7
- IC50 (β-cell KATP channels [5]; whole-cell, concentration-inhibition curve, read-out: IC50 of block of KATP channel current): 3.3 µM
- displacement of specific binding of [3H]P1075 (KATP channel): displaced by iptakalim in a concentration-dependent manner
- water solubility [6]: water-soluble
- effect on voltage-activated currents [7]: selectively enhanced voltage-activated K^+
- effect on intracellular Ca2+ concentrations (rat β-cells): induced elevation of intracellular Ca^2+ concentrations
- effect on membrane potential and action potential firing (rat pancreatic β-cells; 5.5 mM glucose in external solution): slowly depolarized the membrane and elicited action potential firing
- effect on membrane potential (rat pancreatic β-cells): clearly depolarized the membrane

Compound: CC(N/C(=N\C#N)Nc1ccncc1)C(C)(C)C (stereo not shown) [pinacidil]
- displacement of [3H]iptakalim binding [1]: displaced
- effect on β-cell KATP channels (β-cell KATP channels [8]): showed inhibition of β-cell KATP channels

Compound: CCCCNC(=O)NS(=O)(=O)c1ccc(C)cc1 [tolbutamide, reference compound]
- effect on KATP channel activity (β-cell KATP channels [2]; 500 μM bath-application, Vp 0 mV): completely abolished KATP channel activity
- sensitivity of spontaneous single channel activities (β-cell KATP channels [2]; 500 μM bath-applied, Vp −60 mV): very sensitive
- increase of insulin secretion (rat pancreatic islets; 500 μM): about 2.5 fold
- effect on ramp pulse-induced KATP channel whole-cell current (β-cell KATP channels [5]; 500 μM): reversibly abolished the size of the current
